Experimental findings from patent US20070292888A1, “Methods for Measuring Enzyme Activities in Cells, Blood, Tumors and Tissues” (GEN-PATH PHARMACEUTICALS, INC., priority 2004, published 2007) are described below.

The experiment concerns the target T1, kGDH (Homo sapiens, UniProt Q02218).
T1 construct: Log-phase growing cells were trypsinized and resuspended in TDM; endogenous in cells
T1 sequence (Q02218 41-1023): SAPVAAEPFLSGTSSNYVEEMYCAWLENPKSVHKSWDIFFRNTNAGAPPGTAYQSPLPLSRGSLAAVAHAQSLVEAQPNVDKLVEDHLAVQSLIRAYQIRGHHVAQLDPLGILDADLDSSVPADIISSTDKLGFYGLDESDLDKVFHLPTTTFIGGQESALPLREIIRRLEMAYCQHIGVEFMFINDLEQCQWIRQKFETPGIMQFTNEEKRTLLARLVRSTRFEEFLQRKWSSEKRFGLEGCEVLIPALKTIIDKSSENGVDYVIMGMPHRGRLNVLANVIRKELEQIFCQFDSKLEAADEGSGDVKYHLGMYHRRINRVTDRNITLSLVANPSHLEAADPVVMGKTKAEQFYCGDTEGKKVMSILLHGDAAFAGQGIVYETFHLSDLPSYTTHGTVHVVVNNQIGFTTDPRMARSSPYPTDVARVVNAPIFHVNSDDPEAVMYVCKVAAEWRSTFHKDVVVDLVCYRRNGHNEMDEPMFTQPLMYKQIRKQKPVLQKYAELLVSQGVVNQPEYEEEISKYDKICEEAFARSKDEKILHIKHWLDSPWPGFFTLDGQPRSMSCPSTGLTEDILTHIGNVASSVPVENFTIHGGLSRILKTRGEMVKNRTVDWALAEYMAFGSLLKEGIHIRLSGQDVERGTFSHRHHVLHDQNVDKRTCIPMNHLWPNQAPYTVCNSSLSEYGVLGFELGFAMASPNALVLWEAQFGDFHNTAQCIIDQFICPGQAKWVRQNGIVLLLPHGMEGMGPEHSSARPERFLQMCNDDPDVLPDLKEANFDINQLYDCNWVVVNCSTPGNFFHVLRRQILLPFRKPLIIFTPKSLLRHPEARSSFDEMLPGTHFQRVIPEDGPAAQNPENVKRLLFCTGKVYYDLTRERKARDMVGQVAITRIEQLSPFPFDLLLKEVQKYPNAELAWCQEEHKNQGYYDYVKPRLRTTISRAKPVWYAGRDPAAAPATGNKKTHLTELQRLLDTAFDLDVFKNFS
T1 sequence (P36957 68-453 partner): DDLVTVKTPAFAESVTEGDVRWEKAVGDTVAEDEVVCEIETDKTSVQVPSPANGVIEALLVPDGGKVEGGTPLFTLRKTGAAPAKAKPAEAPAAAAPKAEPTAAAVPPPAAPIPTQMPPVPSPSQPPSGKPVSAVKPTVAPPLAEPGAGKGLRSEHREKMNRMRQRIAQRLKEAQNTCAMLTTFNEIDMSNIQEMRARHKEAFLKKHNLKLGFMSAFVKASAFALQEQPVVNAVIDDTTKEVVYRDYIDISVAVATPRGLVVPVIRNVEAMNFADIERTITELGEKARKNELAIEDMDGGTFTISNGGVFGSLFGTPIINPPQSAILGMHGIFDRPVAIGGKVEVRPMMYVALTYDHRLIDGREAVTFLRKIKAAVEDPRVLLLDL
T1 sequence (P09622 36-509 partner): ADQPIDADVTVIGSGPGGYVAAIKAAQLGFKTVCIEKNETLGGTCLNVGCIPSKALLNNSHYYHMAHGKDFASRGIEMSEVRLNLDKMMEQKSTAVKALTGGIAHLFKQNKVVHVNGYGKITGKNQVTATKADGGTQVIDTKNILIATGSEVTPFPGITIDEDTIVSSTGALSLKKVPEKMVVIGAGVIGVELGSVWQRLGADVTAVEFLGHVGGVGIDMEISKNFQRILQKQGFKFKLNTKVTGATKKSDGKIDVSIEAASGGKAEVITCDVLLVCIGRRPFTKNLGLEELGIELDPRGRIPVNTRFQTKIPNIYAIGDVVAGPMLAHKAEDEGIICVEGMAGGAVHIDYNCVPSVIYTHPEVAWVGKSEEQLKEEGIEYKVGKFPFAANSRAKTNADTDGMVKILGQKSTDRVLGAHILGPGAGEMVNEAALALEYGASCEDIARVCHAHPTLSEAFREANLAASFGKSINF
As to the kind of experiment: Cell-based kGDH inhibition in thiamine-depleted media, 96-well format. Particulars: treated cells, 48 hours treatment. Here is the method:
We determined the IC50 of compounds that inhibit the activity of the TPP utilizing enzymes TK, kGDH and PDH in a convenient 96-well format using an optimized version of the method described in the previous Examples.
The high thiamine levels in conventional cell culture media (e.g., DMEM (12 μM), RPMI (3 μM)) masks the inhibitory effect of such inhibitors. To measure the IC50 of such inhibitors, thus, a thiamine depleted DMEM, containing all the ingredients of normal DMEM except for thiamine (HyClone, custom order), was used. Thiamine-depleted media (TDM) is made up with thiamine-depleted DMEM, 10% FBS, which contains negligible amount of thiamine (estimated to be ˜3-5% nM) and 1% Penicillin-streptomycin.
Log-phase growing cells were trypsinized and resuspended in TDM. Optimization of the initial cell counts is recommended for each cell line to ensure that enzyme activity can be observed at the beginning and that healthy growth can continue. For cell lines that have a doubling time of approximately 24 hours and cellular transketolase levels high enough to be reliably detected with five thousand (5K) cells such as HCT116 and HT1080, 8K cells are recommended.
Media containing 8K cells (95 μl) were used to seed individual wells in a 96-well clear-bottom cell cultured treated sterile plate. […] Enzymatic inhibition was expressed as percent of control wells that were not treated with compounds. […]

The term IC50 denotes the concentration at which inhibition is half-maximal. High values mean weaker potency, low ones greater potency. The compound `Cc1ccc(C[n+]2csc(CCO)c2C)c(N)n1` [N3PT, 3-[(2-amino-6-methyl-3-pyridinyl)methyl]-5-(2-hydroxyethyl)-4-methyl thiazolium] gave an IC50 of 86 nM. This counts as double-digit nanomolar.
